The series can be described thus: Solubility of formulations for in vivo analysis (visual observation). The format is physicochemical. The text has this: Cannabidiol (CBD) and hydroxychloroquine (HCQ), were purchased by Pharmacology Discovery Services Taiwan, Ltd. The formulations are summarised in Table 3.

For the compound `C[C@@H]1C[C@H]2[C@@H]3CCC4=CC(=O)C=C[C@]4(C)[C@@]3(F)[C@@H](O)C[C@]2(C)[C@@]1(O)C(=O)CO` [Dexamethasone], the Solubil. result is on record as “I”.

(Values after US20230128114A1, “METHODS AND COMPOSITIONS FOR TREATING OR PREVENTING AN INFLAMMATORY CONDITION” (priority 2020, published 2023).)
